In patent publication US9284350B2, “IAP BIR domain binding compounds” (Pharmascience Inc., priority 2010, dated 2016):

Key:
[1] = target: T1, XIAP (Homo sapiens, UniProt P98170); assay: Fluorescence polarization-based competition assay, XIAP; type: binding; settings: FP assay, ki derived from IC50
T1 construct: fused on or other part: GST tag at the N-terminus (pGEX4T vectors)
Method in brief: (§1)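 Competition of FITC-labelled probe (2 nM) binding to the BIR domain, protein set at 80% of maximal FP signal; 10-point compound dilutions in 50 mM HEPES pH 7.5, γ-globulin, 2 mM DTT, 1% DMSO, 1 h at room temperature in the dark. IC50 from sigmoidal fit; Ki derived from IC50.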

[2] = target: T2, c-IAP1 (Homo sapiens, UniProt Q13490); assay: Fluorescence polarization-based competition assay, c-IAP1; type: binding; settings: FP assay, ki derived from IC50
T2 construct: GST (N); made in house; host or cells: E. coli DH5α
T2 sequence (Q13490 251-363): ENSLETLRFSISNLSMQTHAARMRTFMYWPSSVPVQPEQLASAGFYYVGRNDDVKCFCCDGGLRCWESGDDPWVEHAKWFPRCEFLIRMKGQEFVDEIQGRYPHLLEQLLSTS
Method in brief: as §1

[3] = target: T3, cIAP2 (Homo sapiens, UniProt Q13489); assay: Fluorescence polarization-based competition assay, cIAP2; type: binding; settings: FP assay, ki derived from IC50
T3 construct: GST (N); made in house; host or cells: E. coli DH5α
T3 sequence (Q13489 236-349): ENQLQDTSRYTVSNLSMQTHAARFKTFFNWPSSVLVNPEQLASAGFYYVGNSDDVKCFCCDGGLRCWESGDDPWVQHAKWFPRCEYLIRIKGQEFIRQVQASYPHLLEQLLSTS
Protocol: Binding of compounds of Formula 1 to target BIR domains was measured using a fluorescence-polarization (FP) assay. Fluorescence-polarization was evaluated using a GENios microplate reader (TECAN) Pro instrument with the excitation filter set at 485 nm and the emission filter set at 535 nm. The final amount of protein used in the assay corresponds to the amount of protein necessary to obtain 80% of the maximum FP value in a P1 or P2 fluorescent (FITC) probe saturation experiment. The compounds potency (IC50) and selectivity, was assessed in the presence of the amount of target protein established, fluorescent probe, and a 10 point serial dilution in assay buffer (50 mM Hepes, pH 7.5, 250 mcg/mL γ-globulin, 2 mM DTT, 1% DMSO) of the selected compounds.
Assays were carried out in duplicate using untreated black 96-well plates (Corning #3915) and a total volume of 100 microliters, containing 25 microliters of fluorescent probe at a final concentration of 2 nM in assay buffer, 25 microliters of diluted compound, 25 microliters of BIR protein into assay buffer and 25 microliters of assay buffer. Buffer only (blank) or probe only in buffer (G-factor) were used as controls for calibration. The plate was incubated at room temperature in the dark for one hour and FP values in millipolarization units (mP) were recorded using Genios Pro FP reader.
The measured FP values (mP) were then plotted against compound concentration, and IC50 values were calculated based on a sigmoidal dose-response (variable-slope) curve fit using GraphPad Prism version 4.02 for Windows, GraphPad Software, San Diego Calif. USA and/or CambridgeSoft BioAssay Enterprise Version 10.1. The IC50 value is the concentration of test compound at which 50% of the tracer was displaced. ki values were derived from the calculated IC50 values as described above and according to the equation described in Nikolovska-Coleska, Z. (2004) Anal Biochem 332, 261-273. The results are presented in Table 2, wherein A=less than 25 nM; B=less than 250 nM; C=less than 1000 nM; and D=greater than 1000 nM.

[4] = test system: Colorectal carcinoma HCT116 cells; assay: Cell death assay (MTT) in combination with HGS ETR1; type: cell-based; settings: with HGS ETR1 30 ng/ml, 72 hours, read-out: HCT116+ mapatubimap EC50
Method in brief: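 HCT116 cells (2000/well, McCoy's 5a, 10% FBS) were treated 24 h after plating with compound plus the agonistic TRAIL receptor antibody mapatumumab (ETR1, 30 ng/ml) for 72 hours. Viability was read by MTT. EC50 was the concentration giving 50% survival relative to untreated controls.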

[5] = test system: MDA-MB-231 (CD) cells; assay: MDA-MB-231 compound + mapatubamab xenograft study; type: in vivo, nude mice; settings: 30 and 60 mg/kg, PO, QD in combination with mapatubamab (10 mg/kg, IV)
Protocol: Female, nude mice received 5×10^6 MDA-MB-231 (CD) cells subcutaneously in the right flank (0.1 mL volume) on day 0 of the experiment. When the average tumor size reached ˜100 mm^3, groups were formed using a balanced design based on tumor size, and dosing was initiated. Test compound 10 or 7 (see Table 1) (or corresponding vehicle alone) was given daily, and mapatubamab (or corresponding vehicle alone) was given twice weekly. Tumor size and body weight were measured twice weekly throughout the study.

T1 sequence (P98170 246-497 limits assumed): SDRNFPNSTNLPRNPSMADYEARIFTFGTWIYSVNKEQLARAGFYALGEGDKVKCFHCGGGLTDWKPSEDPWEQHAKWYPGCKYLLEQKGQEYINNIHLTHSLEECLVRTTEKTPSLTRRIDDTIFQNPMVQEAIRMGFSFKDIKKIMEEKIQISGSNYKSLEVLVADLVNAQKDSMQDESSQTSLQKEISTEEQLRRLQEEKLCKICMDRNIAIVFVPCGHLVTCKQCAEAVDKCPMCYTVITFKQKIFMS

## CN[C@@H](C)C(=O)N[C@H](C(=O)N1CCC[C@H]1CN(CCc1ccccc1)C(=O)c1cn2ccccc2n1)C(C)(C)C [Compound 7]
[1]
  Ki: < 250 nM
[2]
  Ki: < 25 nM
[3]
  Ki: < 25 nM
[4]
  EC50: < 250 nM
[5]
  reduction of tumor volume as compared to control: 50%

## CN[C@@H](C)C(=O)N[C@H](C(=O)N1CCC[C@H]1CN(CCc1ccc(F)cc1)C(=O)c1cn2cccnc2n1)C(C)(C)C [Compound 10]
[1]
  Ki: < 250 nM
[2]
  Ki: < 25 nM
[3]
  Ki: < 25 nM
[4]
  EC50: < 50 nM
[5]
  reduction of tumor volume as compared to control: 50%

## CN[C@@H](C)C(=O)N[C@H](C(=O)N1C[C@@H](Oc2ccc(OC(F)(F)F)cc2)C[C@H]1CN(CCc1ccc(F)cc1)C(=O)c1cn(C)cn1)C(C)(C)C [Compound 97]
[1]
  Ki: < 250 nM
[2]
  Ki: < 25 nM
[3]
  Ki: < 25 nM
[4]
  EC50: < 50 nM

## CN[C@@H](C)C(=O)N[C@H](C(=O)N1CCC[C@H]1CN(CCc1ccc(F)cc1)C(=O)c1cc(C)on1)C(C)(C)C [Compound 98]
[1]
  Ki: < 250 nM
[2]
  Ki: < 25 nM
[3]
  Ki: < 25 nM
[4]
  EC50: < 250 nM

## CN[C@@H](C)C(=O)N[C@H](C(=O)N1C[C@@H](Oc2ccc(F)cc2)C[C@H]1CN(CCc1ccc(F)cc1)C(=O)c1cn(C)cn1)[C@@H](C)OC [Compound 99]
[1]
  Ki: < 250 nM
[2]
  Ki: < 25 nM
[3]
  Ki: < 25 nM
[4]
  EC50: < 50 nM

## CN[C@@H](C)C(=O)N[C@H](C(=O)N1C[C@@H](Oc2ccc(F)cc2)C[C@H]1CN(CCc1ccc(F)cc1)C(=O)c1cn2cccnc2n1)[C@@H](C)OC [Compound 100]
[1]
  Ki: < 250 nM
[2]
  Ki: < 25 nM
[3]
  Ki: < 25 nM
[4]
  EC50: < 250 nM

## CN[C@@H](C)C(=O)N[C@H](C(=O)N1C[C@@H](Oc2ccc(F)cc2)C[C@H]1CN(CCc1ccc(F)cc1)C(=O)c1cn2ccccc2n1)[C@@H](C)OC [Compound 102]
[1]
  Ki: < 250 nM
[2]
  Ki: < 25 nM
[3]
  Ki: < 25 nM
[4]
  EC50: < 50 nM

## CN[C@@H](C)C(=O)N[C@H](C(=O)N1CCC[C@H]1CN(CCc1ccc(F)cc1)C(=O)c1cn2cc(F)cnc2n1)C1CCCCC1 [Compound 103]
[1]
  Ki: < 250 nM
[2]
  Ki: < 25 nM
[3]
  Ki: < 25 nM
[4]
  EC50: < 50 nM

## CN[C@@H](C)C(=O)N[C@H](C(=O)N1CCC[C@H]1CN(CCc1ccc(F)cc1)C(=O)c1cn(-c2ccc(F)cc2)cn1)C1CCCCC1 [Compound 104]
[1]
  Ki: < 250 nM
[2]
  Ki: < 25 nM
[3]
  Ki: < 25 nM
[4]
  EC50: < 50 nM

## CN[C@@H](C)C(=O)N[C@H](C(=O)N1C[C@@H](Oc2ccc(OC)cc2)C[C@H]1CN(CCc1ccc(F)cc1)C(=O)c1cn2ccccc2n1)C(C)(C)C [Compound 105]
[1]
  Ki: < 25 nM
[2]
  Ki: < 25 nM
[3]
  Ki: < 25 nM
[4]
  EC50: < 50 nM

## CN[C@@H](C)C(=O)N[C@H](C(=O)N1C[C@@H](Oc2ccncc2)C[C@H]1CN(CCc1ccc(F)cc1)C(=O)c1cn2ccccc2n1)C(C)(C)C [Compound 106]
[1]
  Ki: < 250 nM
[2]
  Ki: < 25 nM
[3]
  Ki: < 25 nM
[4]
  EC50: < 50 nM

## CN[C@@H](C)C(=O)N[C@H](C(=O)N1C[C@@H](Oc2ccc(F)cc2)C[C@H]1CN(CCc1ccc(F)cc1)C(=O)c1cn2cc(F)cnc2n1)[C@@H](C)OC [Compound 107]
[1]
  Ki: < 250 nM
[2]
  Ki: < 25 nM
[3]
  Ki: < 25 nM
[4]
  EC50: < 50 nM

## CN[C@@H](C)C(=O)N[C@H](C(=O)N1C[C@@H](Oc2ccc(F)cc2)C[C@H]1CN(CCc1ccc(F)cc1)C(=O)c1cn(-c2ccc(F)cc2)cn1)[C@@H](C)OC [Compound 108]
[1]
  Ki: < 250 nM
[2]
  Ki: < 25 nM
[3]
  Ki: < 25 nM
[4]
  EC50: < 250 nM

## CN[C@@H](C)C(=O)N[C@H](C(=O)N1CCC[C@H]1CN(CCc1ccc(F)cc1)C(=O)c1ncc(-c2ccccc2)[nH]1)C(C)(C)C [Compound 109]
[1]
  Ki: < 250 nM
[2]
  Ki: < 25 nM
[3]
  Ki: < 25 nM
[4]
  EC50: < 50 nM

## CN[C@@H](C)C(=O)N[C@H](C(=O)N1CCC[C@H]1CN(CCc1ccc(F)cc1)C(=O)c1cn(C)nn1)C1CCCCC1 [Compound 110]
[1]
  Ki: < 250 nM
[2]
  Ki: < 25 nM
[3]
  Ki: < 25 nM
[4]
  EC50: < 50 nM

## CN[C@@H](C)C(=O)N[C@H](C(=O)N1C[C@@H](Oc2ccc(OC(F)(F)F)cc2)C[C@H]1CN(CCc1ccc(F)cc1)C(=O)c1cn2ccccc2n1)C(C)(C)C [Compound 111]
[1]
  Ki: < 25 nM
[2]
  Ki: < 25 nM
[3]
  Ki: < 25 nM
[4]
  EC50: < 50 nM

## CN[C@@H](C)C(=O)N[C@H](C(=O)N1C[C@@H](NC(=O)c2ccccc2)C[C@H]1CN(CCc1ccc(F)cc1)C(=O)c1cn2cc(F)cnc2n1)C(C)(C)C [Compound 112]
[1]
  Ki: < 250 nM
[2]
  Ki: < 25 nM
[3]
  Ki: < 25 nM
[4]
  EC50: < 250 nM

## CN[C@@H](C)C(=O)N[C@H](C(=O)N1CCC[C@H]1CN(CCc1ccc(F)cc1)C(=O)c1cn2c(n1)CCC2)C1CCCCC1 [Compound 113]
[1]
  Ki: < 250 nM
[2]
  Ki: < 25 nM
[3]
  Ki: < 25 nM
[4]
  EC50: < 50 nM

## CN[C@@H](C)C(=O)N[C@H](C(=O)N1C[C@@H](Oc2ccc(F)cc2)C[C@H]1CN(CCc1ccc(F)cc1)C(=O)c1cn2c(n1)CCC2)[C@@H](C)OC [Compound 114]
[1]
  Ki: < 25 nM
[2]
  Ki: < 25 nM
[3]
  Ki: < 25 nM
[4]
  EC50: < 50 nM

## CN[C@@H](C)C(=O)N[C@H](C(=O)N1CCC[C@H]1CN(CCc1ccc(F)cc1)C(=O)c1cc(-c2ccccc2)on1)C(C)(C)C [Compound 115]
[1]
  Ki: < 250 nM
[2]
  Ki: < 25 nM
[3]
  Ki: < 25 nM
[4]
  EC50: < 250 nM

## CN[C@@H](C)C(=O)N[C@H](C(=O)N1C[C@@H](Oc2ccc(F)cc2)C[C@H]1CN(CCc1ccc(F)cc1)C(=O)c1cn2cc(F)cnc2n1)C(C)(C)C [Compound 116]
[1]
  Ki: < 25 nM
[2]
  Ki: < 25 nM
[3]
  Ki: < 25 nM
[4]
  EC50: < 50 nM

## CN[C@@H](C)C(=O)N[C@H](C(=O)N1CCC[C@H]1CN(CCc1ccc(F)cc1)C(=O)c1nnc(-c2ccccc2)o1)C(C)(C)C [Compound 117]
[1]
  Ki: < 1000 nM
[2]
  Ki: < 25 nM
[3]
  Ki: < 25 nM
[4]
  EC50: < 250 nM

## CN[C@@H](C)C(=O)N[C@H](C(=O)N1CCC[C@H]1CN(CCc1ccc(F)cc1)C(=O)c1cn(C)cn1)C1CCCCC1 [Compound 120]
[1]
  Ki: < 250 nM
[2]
  Ki: < 25 nM
[3]
  Ki: < 25 nM
[4]
  EC50: < 50 nM

## CN[C@@H](C)C(=O)N[C@H](C(=O)N1CCC[C@H]1CN(CCc1ccc(F)cc1)C(=O)c1ccn(-c2ccccc2)c1)C(C)(C)C [Compound 122]
[1]
  Ki: < 250 nM
[2]
  Ki: < 25 nM
[3]
  Ki: < 25 nM
[4]
  EC50: < 250 nM

## CN[C@@H](C)C(=O)N[C@H](C(=O)N1CCC[C@H]1CN(CCc1ccc(F)cc1)C(=O)c1ncc(-c2ccccc2)o1)C(C)(C)C [Compound 123]
[1]
  Ki: < 250 nM
[2]
  Ki: < 25 nM
[3]
  Ki: < 25 nM
[4]
  EC50: < 50 nM

## CN[C@@H](C)C(=O)N[C@H](C(=O)N1C[C@@H](Oc2ccccc2)C[C@H]1CN(CCc1ccc(F)cc1)C(=O)c1cn2cccnc2n1)C(C)(C)C [Compound 124]
[1]
  Ki: < 250 nM
[2]
  Ki: < 25 nM
[3]
  Ki: < 25 nM
[4]
  EC50: < 50 nM
